Data: patent publication EP4121415B1, “INHIBITORS OF CYTOKININ OXIDASE DERIVED FROM 1-[2-(HYDROXYALKYL)PHENYL]-3-YLUREA, USE THEREOF AND PREPARATIONS CONTAINING THESE DERIVATIVES” (Univerzita Palackého v Olomouci, priority 2020, dated 2021)
Where “and” joins values, the source holds several entries; their conditions need not be identical. Equal entries are not always repeated.

Key:
[1] = system: Arabidopsis thaliana (ecotype Col-0); test: abiotic stress (saline, osmotic) assay on Arabidopsis seedlings; format: in vivo; conditions: 10 nM, 6 days of growth after transfer
Description: Compound 61 was tested for its ability to alleviate the effects of abiotic stress, represented by application of 100 mM NaCl (saline stress) or 100 mM mannitol (osmotic stress), respectively. The assay was performed as described in (Ugena et al., 2018, Front Plant Sci. 9, 1327. doi: 10.3389/fpls.2018.01327). Arabidopsis thaliana (ecotype Col-0) seeds were germinated on full MS growth medium for three days without presence of any treatment. After that they were transferred to the same medium containing 10 nM concertation of compound 61 in the absence or presence of the abiotic stress factor. Dimethyl sulfoxide (DMSO) was used as a solvent control (mock) in all variants. The dynamics of the shoot biomass formation and the relative growth rate were evaluated by recording the green area twice a day during the 6 days of growth after the seedling transfer. The abiotic stress conditions caused severe penalty in both traits evaluated. The salt and mannitol stress reduced the shoot yield by 63 % and 42 %, respectively, whereas presence of the compound 61 turned back the penalty by almost 20 % (Table 3 and Fig. 1). […] 11 % (Table 3).

[2] = system: segments of wheat leaves (Triticum aestivum cv. Hereward); test: wheat leaf senescence assay performed in the dark (chlorophyll retention in detached leaf segments); format: in vivo; conditions: Triticum aestivum, foliar, 96 h, read-out: (% of chlorophyll above control)
Description: Seeds of winter wheat (Triticum aestivum cv. Hereward) was washed under running water for 4 hours and then sown in vermiculite saturated with Knop's nutrient solution. The trays with seeds were placed in an air-conditioned growth chamber with a 16/8 hour light regime (light intensity 50 µmol.m^-2.s^-1) and a temperature of 15 °C. After 7 days, the seedlings had developed the first […] and the second leaf began to grow. Top sections approximately 4 cm long were excised from the first leaves of 4 plants and their combined weight was adjusted to exactly 100 mg. The basal ends of these 4 leaf segments were placed in the wells of microtiter polystyrene plates containing solution (150 µL) of the tested derivative. The plates were placed in a plastic box with filter paper, which was saturated with water (to maintain the maximum humidity). After 96 hours of incubation in the dark at 25 °C, the leaf segments were removed and the chlorophyll was extracted to 5 mL of 80% ethanol by heating the leaf segments in ethanol at 80 °C for 40 min. The sample volume was then adjusted to 5 mL by adding 80% ethanol. The absorbance of the extracts was measured at 665 nm. Chlorophyll extracts from leaf segments incubated in deionized water (so-called yellow control) were also measured as controls. Freshly cut leaves (100 mg) were used as a green control, from which chlorophyll was extracted and measured in the same manner. The calculated values are the average of 5 replicates and the whole experiment was repeated two times. The tested compounds were dissolved in dimethyl sulfoxide (DMSO) to a concentration 10^-2 M. This stock solution was further diluted with water to a concentration of 10 micromolar. At this concentration, the substances were tested.

Arabidopsis thaliana [3] = test: foliar application, seed yield in Arabidopsis; format: in vivo
Description: In our experiment, young Arabidopsis thaliana plants were grown in small pots in soil and they were sprayed with a 0.1 µM compound 61 (aq solution) in phase of 4 true leaves (about 14-20 days after sowing). Treated plants (n = 25) and control plants (n = 25) were further grown under optimal conditions until their natural death. Subsequently, seeds were harvested from all plants and the yield was evaluated. […] This means a 19 % increase in total seed yield.
This means an increase in total seed yield of 23 %.

winter rapeseed = test: field trial, foliar application, seed yield of winter rapeseed; format: in vivo; conditions: 5 µM in 300 L per hectare; for weight of one thousand seeds: control 5.51 g; for seed yield compared to the control (100 %): foliar
Description: In 2017, the effect of foliar application of compound 61 (5 µM concentration in a volume of 300 L per hectare) on seed yield of winter rapeseed in field conditions was determined. The field trials were performed according to "good agricultural practice". Substance 61 was applied to plants in two different growth phases - BBCH 30 and BBCH 33-35. […] The weight of one thousand seeds in the treated plants was 5.7 g (BBCH 30) and 5.8 g (BBCH 33-35). This phenomenon contributed to the increase in total seed yield.

Arabidopsis thaliana [4] = test: foliar application, lifespan of Arabidopsis under optimal conditions; format: in vivo; conditions: sprayed with 0.1 µM aqueous solution in phase of 4 true leaves, n = 25, compared to control plants
Description: Young Arabidopsis thaliana plants grown in small pots in a soil were sprayed with a 0.1 µM aqueous solution of substance 61 in phase of 4 true leaves (within 14-20 days after sowing).
Treated plants (n = 25) and control plants (n = 25) were further grown under optimal conditions until their natural death as in Example 25. […] The treated plants remained more green for a longer period of time (delayed senescence), which allowed them to accumulate more products of photosynthesis, which in turn may have contributed to a higher yield of these plants.

[5] = molecular target: T1, maize enzyme cytokinin oxidase/dehydrogenase 1 (ZmCKX1) (Zea mays, UniProt Q9T0N8); test: ZmCKX1 inhibition, PMS/MTT assay; format: biochemical
T1 construct: made in house; host or cells: Yarrowia lipolytica
T1 sequence (Q9T0N8 19-534): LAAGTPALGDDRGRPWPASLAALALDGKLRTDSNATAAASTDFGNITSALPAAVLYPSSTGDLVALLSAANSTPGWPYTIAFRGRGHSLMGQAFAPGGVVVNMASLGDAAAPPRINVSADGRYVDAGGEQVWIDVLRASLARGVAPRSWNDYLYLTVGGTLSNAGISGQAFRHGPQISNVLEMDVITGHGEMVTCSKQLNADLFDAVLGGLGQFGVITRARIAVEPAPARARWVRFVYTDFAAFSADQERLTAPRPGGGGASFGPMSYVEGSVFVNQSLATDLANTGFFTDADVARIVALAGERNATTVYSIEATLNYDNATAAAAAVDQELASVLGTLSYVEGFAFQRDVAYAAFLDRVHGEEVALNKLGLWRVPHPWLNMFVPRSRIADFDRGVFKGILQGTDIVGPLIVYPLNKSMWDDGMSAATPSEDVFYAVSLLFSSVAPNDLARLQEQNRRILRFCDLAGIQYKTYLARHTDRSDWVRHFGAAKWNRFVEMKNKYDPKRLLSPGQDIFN
Description: The IC50 (concentration of a substance that causes 50% inhibition of the enzyme activity) was measured by PMS/MTT assay [phenazine methosulphate/3-(4,5-dimethylthiazol-2-yl)-2,5-diphenyltetrazolium bromide]. The assay was performed in 96-well microtiter plates. Each well contained a reaction mixture with a final concentration of: 0.1 M KH2PO4, pH 7.4, 1 mM MTT, 0.2 mM PMS, tested substance in a concentration range of 0.1 nM - 1 µM and 10 µM N^6-isopentenyladenine (iP) as a substrate. To this reaction mixture 100 µL of medium containing the active enzyme ZmCKX1 was added. The enzyme was produced by the yeast Yarrowia lipolytica and isolated according to the protocol (Kopečný D. et al., 2005, […] 87:1011-1022). The plates were incubated for 30 min at 37 °C and the enzymatic reaction was stopped by the addition of 25 µL of 35% acetic acid. Then, the absorbance at 578 nm was measured on a spectrophotometer, and the absorbance of the sample without the substrate was substracted as a reference value. The IC50 value was determined from the concentration-dependent curves in GraphPad Prism software. The values shown in Table 1 are the average of at least two measurements each performed in three repetitions. […] This also applies to 3,5-DCl-Ph-U derivatives.

[6] = sprayed with 0.1 µM aq solution in phase of 4 true leaves, n = 25, optimal conditions

O=C(Nc1cccc(OC(F)(F)F)c1)Nc1ccccc1CCO [Compound 61, 1-[2-(2-Hydroxyethyl)phenyl]-3-(3-trifluoromethoxyphenyl)urea]
shoot yield: penalty caused by stress turned back ([1]; 100 mM NaCl (saline stress) or 100 mM mannitol (osmotic stress)): ~20%
average relative growth rate: effect of the stressors reduced ([1]; 100 mM NaCl or 100 mM mannitol): ~11%
activation at 10 µM [2]: 24%
increase in total seed yield (Arabidopsis thaliana [3]; 0.1 µM spray, compared to control plants): 19% and 23%
seeds per silique (average) (Arabidopsis thaliana [3]; [6]): 52 (± 4) and 49 (± 6)
total seed yield per plant (Arabidopsis thaliana [3]; [6]): 155 (± 19) mg and 138 (± 15) mg
weight of one thousand seeds (winter rapeseed; applied at BBCH 30): 5.7 g
weight of one thousand seeds (winter rapeseed; applied at BBCH 33-35): 5.8 g
seed yield compared to the control (100 %) (winter rapeseed; applied at BBCH 30, 2017): 105.7%
seed yield compared to the control (100 %) (winter rapeseed; applied at BBCH 33-35, 2017): 107.5%
longer viability (average) (Arabidopsis thaliana [4]): 10 days
IC50 [5]: 180 nM
